The values that follow come from patent publication US20090318504A1, “Use of GAL3 receptor antagonists for the treatment of depression and/or anxiety and compounds useful in such methods” (priority 2001, published 2009).

Bounds are passed on as bounds.

The subject of test [1] is male Sprague-Dawley rats. The experiment in a line: Rat Forced Swim Test (FST). The test is classed as in vivo. To be noted: for Overall profile in the Forced Swim Test: conclusion of the study, male Sprague-Dawley rats.
The target of test [2] is T1, human GAL1 receptor (Homo sapiens, UniProt P47211).
T1 construct: expressed in transfected cells; membranes
T1 sequence (P47211 1-349): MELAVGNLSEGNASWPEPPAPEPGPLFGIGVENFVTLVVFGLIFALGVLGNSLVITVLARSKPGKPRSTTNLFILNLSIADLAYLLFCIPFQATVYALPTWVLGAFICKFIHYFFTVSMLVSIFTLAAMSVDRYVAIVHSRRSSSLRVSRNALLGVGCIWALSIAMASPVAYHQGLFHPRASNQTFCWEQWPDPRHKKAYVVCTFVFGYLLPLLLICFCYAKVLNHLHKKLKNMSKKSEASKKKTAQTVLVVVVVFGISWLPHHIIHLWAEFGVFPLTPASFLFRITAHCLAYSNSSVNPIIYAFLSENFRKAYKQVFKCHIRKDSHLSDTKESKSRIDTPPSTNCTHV
The experiment in a line: Radioligand binding at cloned human GAL1 receptor. Particulars: pyrimidines, read-out: Ki GalR1. An excerpt:
(§1) In order to test compounds for selective binding to the human GAL3 receptor the cloned cDNAs encoding both the human and rat GALL and GAL2 receptors have been used. The cloning and assay methods for the human and rat GAL1 receptors may be found in PCT International Publication No. WO 95/22608, the contents of which are hereby incorporated by reference. The cloning and assay methods for the human and rat GAL2 receptors may be found in PCT International Publication No. WO 97/26853, the contents of which are hereby incorporated by reference.
(§2) The present invention provides for a method of determining the binding affinity of a GAL3 antagonist, wherein the GAL3 antagonist is dissolved in a “suitable solvent”. A “suitable solvent” means one which permits the measurement of binding affinity of the GAL3 antagonist to the human GAL3 receptor at concentrations less than 1 μM, preferably less than 100 nM. Examples of solvents include, but are not limited to, DMSO, ethanol, N,N-dimethylacetamide, or water. For indolones, the preferred solvent is 3% DMSO (final concentration in the assay). For pyrimidines, the preferred solvent is 1% ethanol/0.09% polypuronic acid F-127 (final concentration in the assay). For any other type of compounds, the preferred solvent is the solvent which permits the measurement of binding affinity of a GAL3 antagonist at the lowest concentration. Once a suitable solvent is ascertained for the binding assay of the human GAL3 receptor, the same solvent is used in assays to determine the binding affinity at the GAL1 receptor, the serotonin transporter, the norepinephrine transporter, and the dopamine transporter. A solvent of 0.4% DMSO is used in the central monoamine oxidase enzyme assay.
(§3) The binding properties of the pyrimidines of the present invention were evaluated at the cloned human galanin receptors, GAL1, GAL2, and GAL3, using protocols described herein.
(§4) The binding properties of the indolones of the present invention were evaluated at the cloned human galanin receptors, GAL1, GAL2, and GAL3, using protocols described herein.
(§5) LM(tk−) cells were stably transfected with the human GALL or GAL3 receptor. CHO cells were stably transfected with the human GAL2 receptor.
(§6) cDNAs for the human and rat GAL1, and human and rat GAL3 receptors were transfected with a G-418 resistant gene into the mouse fibroblast LM(tk−) cell line by a calcium phosphate transfection method (Cullen, 1987). Stably transfected cells were selected with G-418. Human and rat GAL2 receptors were similarly transfected into CHO cells.
Membranes were harvested from stably transfected LM(tk−) cells. […] Protein concentration was measured by the Bradford method (Bradford, 1976) using Bio-Rad Reagent, with bovine serum albumin as a standard. […]

Test [3] deals with T2, human GAL2 receptor (Homo sapiens, UniProt O43603).
T2 construct: expressed in transfected cells; membranes
T2 sequence (O43603 1-387): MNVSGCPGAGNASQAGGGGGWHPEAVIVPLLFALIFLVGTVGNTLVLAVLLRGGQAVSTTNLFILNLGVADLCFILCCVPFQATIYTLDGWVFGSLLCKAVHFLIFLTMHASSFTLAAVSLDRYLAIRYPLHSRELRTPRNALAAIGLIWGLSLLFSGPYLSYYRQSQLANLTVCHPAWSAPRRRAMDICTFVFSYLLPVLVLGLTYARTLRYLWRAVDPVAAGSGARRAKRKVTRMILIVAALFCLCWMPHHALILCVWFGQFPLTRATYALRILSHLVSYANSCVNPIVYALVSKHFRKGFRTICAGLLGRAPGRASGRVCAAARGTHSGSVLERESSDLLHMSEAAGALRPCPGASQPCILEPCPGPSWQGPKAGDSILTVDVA
The experiment in a line: Radioligand binding at cloned human GAL2 receptor. Particulars: pyrimidines, read-out: Ki GalR2.
Description: as §1, §2, §3, §4, §5, §6
Membranes were harvested from stably transfected LM(tk−) cells. Adherent cells were washed twice in ice-cold phosphate buffered saline (138 mM NaCl, 8.1 mM Na2HPO4, 2.5 mM KCl, 1.2 mM KH2PO4, 0.9 mM CaCl2, 0.5 mM MgCl2, pH 7.4) and lysed by sonication in ice-cold sonication buffer (20 mM Tris-HCl, 5 mM EDTA, pH 7.7). Large particles and debris were cleared by low speed centrifugation (200×g, 5 min, 4° C.). Membranes were collected from the supernatant fraction by centrifugation (32,000×g, 18 min, 4° C.), washed with ice-cold hypotonic buffer, and collected again by centrifugation (32,000×g, 18 min, 4° C.). The final membrane pellet was resuspended by sonication into a small volume of ice-cold binding buffer (~1 ml for every 5 plates: 10 mM NaCl, 20 mM HEPES, 0.22 mM KH2PO4, 1.26 mM CaCl2, 0.81 mM MgSO4, pH 7.4). Protein concentration was measured by the Bradford method (Bradford, 1976) using Bio-Rad Reagent, with bovine serum albumin as a standard. […]

Test [4] has as its target T3, human GAL3 receptor (Homo sapiens, UniProt O60755).
T3 construct: expressed in transfected cells; membranes
T3 sequence (O60755 1-368): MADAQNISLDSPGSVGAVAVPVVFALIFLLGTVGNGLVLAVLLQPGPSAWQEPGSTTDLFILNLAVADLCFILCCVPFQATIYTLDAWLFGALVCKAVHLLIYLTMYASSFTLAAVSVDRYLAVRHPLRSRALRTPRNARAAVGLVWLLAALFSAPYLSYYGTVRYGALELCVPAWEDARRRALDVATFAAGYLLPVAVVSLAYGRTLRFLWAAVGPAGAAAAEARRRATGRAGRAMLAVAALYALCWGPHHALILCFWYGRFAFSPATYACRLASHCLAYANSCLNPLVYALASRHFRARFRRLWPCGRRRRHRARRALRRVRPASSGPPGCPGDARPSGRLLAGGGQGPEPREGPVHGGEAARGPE
The experiment in a line: Radioligand binding at cloned human GAL3 receptor. Particulars: for Ki: pyrimidines, cloned human receptor, read-out: Ki GalR3. Here is the method:
as §2, §3, §4, §5, §6
Membranes were harvested from stably transfected LM(tk−) cells. Adherent cells were washed twice in ice-cold phosphate buffered saline (138 mM NaCl, 8.1 mM Na2HPO4, 2.5 mM KCl, 1.2 mM KH2PO4, 0.9 mM CaCl2, 0.5 mM MgCl2, pH 7.4) and lysed by sonication in ice-cold sonication buffer (20 mM Tris-HCl, 5 mM EDTA, pH 7.7). Large particles and debris were cleared by low speed centrifugation (200×g, 5 min, 4° C.). Membranes were collected from the supernatant fraction by centrifugation (32,000×g, 18 min, 4° C.), washed with ice-cold hypotonic buffer, and collected again by centrifugation (32,000×g, 18 min, 4° C.). The final membrane pellet was resuspended by sonication into a small volume of ice-cold binding buffer (~1 ml for every 5 plates: 10 mM NaCl, 20 mM HEPES, 0.22 mM KH2PO4, 1.26 mM CaCl2, 0.81 mM MgSO4, pH 7.4). Protein concentration was measured by the Bradford method (Bradford, 1976) using Bio-Rad Reagent, with bovine serum albumin as a standard. Membranes were held on ice for up to one hour and used fresh, or flash frozen and stored in liquid nitrogen. Membranes were prepared similarly from CHO cells.
Galanin Receptors Binding assays were performed according to the following published methods: human GAL3 (PCT International Publication No. WO 98/15570), human GAL1 (PCT International Publication No. WO 95/2260), human GAL2 (PCT International Publication No. WO 97/26853).
Binding data were analyzed using nonlinear regression and statistical techniques available in the GraphPAD Prism package (San Diego, Calif.). Enzymatic assay data were derived from a standard curve of reference compound data.
The selectivity ratios for compounds of the claimed invention were calculated from the binding data presented in Tables 1-4, Table 7 and Table 9 of the subject application. […]

Test [5] has as its target norepinephrine transporter (Rattus norvegicus, UniProt Q9WTR4). The experiment in a line: Binding at native NE transporter. Particulars: rNE Uptk. The procedure:
The binding properties of the compounds of the present invention were evaluated at one or more cloned receptors or native, tissue-derived transporters, using protocols described below.
The methods to determine binding affinity at native transporters are described in the following publications: 5HT transporter and NE transporter (Owens et al., 1997), and DA transporter (Javitch et al, 1984).

The subject of test [6] is male Sprague-Dawley rats. The experiment in a line: Rat Social Interaction Test (SIT). The test is classed as in vivo.
The subject of test [7] is male Sprague-Dawley rats. To be noted: ex vivo data (Leonard, 1996); cited from earlier work.
Setting [8] is: rat FST, single p.o. administration, 10 mg/kg, 1 hr before test, listed as Flu0x, 10 mg/kg.

Regarding `O=C1C(=Nc2cc(Cl)cc(Cl)c2)c2ccccc2N1c1ccccc1` [Example 103, 3-[(3,5-DICHLOROPHENYL)IMINO]-1-PHENYL-1,3-DIHYDRO-2H-INDOL-2-ONE], in test [1], the “Overall profile in the Forced Swim Test” value is on record as “has antidepressant properties”.
As a reminder, the Ki is a measure of affinity in units of concentration, obtained from inhibition or displacement. For the compound `CN(C)c1cc(N)nc(N(c2ccccc2)c2ccc(Cl)cc2)n1` [Example 58], the Ki in test [2] was more than 5000 nM; in test [3] it was more than 5000 nM; in test [4] it was 783 nM.
As to `Cc1ccc(Nc2cc(N(C)C)nc(N3CCN(c4ncccc4C#N)CC3)n2)cc1` [Example 241], the Ki in test [4] was 216 nM.
As to `CN(C)c1cc(Nc2ccc3ccccc3c2)nc(N(C)CCc2c[nH]c3ccccc23)n1` [Example 79], the results for the Ki in test [2], in test [3] and in test [4] were 3800 nM, 1660 nM and 190 nM, respectively.
With `O=C1/C(=N\c2ccc(Cl)c(Cl)c2)c2ccccc2N1c1ccsc1` [Example 272, (3Z)-3-[(3,4-DICHLOROPHENYL)IMINO]-1-(3-THIENYL)-1,3-DIHYDRO-2H-INDOL-2-ONE], the “Overall profile in the Forced Swim Test” value in test [1] is recorded as “has the profile of an antidepressant”.
In turn, `Cc1ccc(Nc2cc(N3CCCCC3)nc(N(C)CCc3ccccc3)n2)cc1` [Example 22] came in with a Ki in test [5] of 13100 nM. Further, the “Overall profile in the Forced Swim Test” value in test [1] was “has antidepressant properties”.
As for `Cc1ccc(Nc2cc(N3CCCCC3)nc(N3CCN(c4ncccc4C(F)(F)F)CC3)n2)cc1` [Example 34], in test [4], the “GAL3/GAL1 binding ratio (Ki GAL1 divided by Ki GAL3)” value was determined as 39 fold. In test [5], this compound registered an inhibitory constant (Ki) of more than 50000 nM. The “Overall profile in the Forced Swim Test” value in test [1] is “produces an effect in the FST that resembles that of antidepressants”. Moreover, the Immobility entry in test [1] (rat FST, single p.o. administration, 10 mg/kg, 1 hr before test, 10 mg/kg) is given as “not significantly decrease in immobility”. Also, in test [6] (SIT, single p.o., 0.03 mg/kg), the Rearing was 27 ± 3. Besides, the “Overall profile in the Social Interaction Test” value in test [6] (conclusion of the study, male rats) is “produces an anxioltyic action in the social interaction test”.
For the compound `CNCCC(Oc1ccc(C(F)(F)F)cc1)c1ccccc1` (stereo not drawn) [Fluoxetine, fluoxetine, reference compound], in test [1] (setting [8]), the Climbing was 4.5 ± 1.2 counts and the Diving came out at 1.0 ± 0.8 counts. Also, the “p.o. dose required to inhibit 5-HT uptake in the CNS by 50%” value in test [7] is given as 7 mg/kg.
In the case of `O=C1C(=Nc2ccc(C(F)(F)F)cc2)c2ccccc2N1c1ccccc1` [Example 95, 1-PHENYL-3-[[4-(TRIFLUOROMETHYL)PHENYL]IMINO]-1,3-DIHYDRO-2H-INDOL-2-ONE], the “Overall profile in the Forced Swim Test” value in test [1] was “does not produce antidepressant-like actions in the forced swim test”.
With `O=C1C(=Nc2ccc(Br)cc2)c2ccccc2N1c1ccccc1` [Example 98, 3-[(4-BROMOPHENYL)IMINO]-1-PHENYL-1,3-DIHYDRO-2H-INDOL-2-ONE], in test [1], the “Overall profile in the Forced Swim Test” value is on record as “produces a profile in the modified Lucki version of the FST resembling that of the clinically established antidepressant fluoxetine”. Also, the Climbing result in test [1] (rat FST, single p.o. administration, 3 mg/kg, 1 hr before test, 3 mg/kg) is given as “significantly greater increase in climbing compared to 30 mg/kg of Example 98”.
In turn, `Cc1ccc(Nc2cc(N3CCCCC3)nc(N(C)CCc3c[nH]c4ccccc34)n2)cc1` [Example 11] had a Ki in test [5] of more than 50000 nM.
Compound `CN(CCc1c[nH]c2ccccc12)c1nc(Nc2ccc(F)c(F)c2)cc(N2CCCCC2)n1` [Example 15] gave a Ki in test [5] of more than 50000 nM.
Consider `CN(C)c1cc(Nc2ccc(Cl)c(Cl)c2)nc(N2CCN(Cc3ccccc3)CC2)n1` [Example 151], for which, in test [1], the “Overall profile in the Forced Swim Test” value is recorded as “produces behavioral effects in the FST in rats that resemble those of antidepressants”.
For the compound `Cc1ccc(Nc2cc(N(C)C)nc(N3CCc4ccccc43)n2)cc1` [Example 75], the Ki in test [3] amounted to 245 nM.
With `Cc1ccc(N(c2ccc(C)cc2)c2cc(N3CCCCC3)nc(N)n2)cc1` [Example 4], the inhibition constant Ki in test [2] was more than 5000 nM; in test [3], more than 5000 nM; in test [4] it was 627 nM.
For the compound `COCCN(c1ccc(C)cc1)c1cc(N2CCCCC2)nc(NCCc2c[nH]c3ccccc23)n1` [Example 19], the Ki in test [2] was more than 5000 nM; in test [3] it was 1770 nM; in test [4] it was 79 nM.
